From paper PMC5584973, “Characterization of novel bangle lectin from Photorhabdus asymbiotica with dual sugar-binding specificity and its effect on host immunity” (PLoS Pathogens, 2017)
Like-named read-outs stand apart in the source and are kept apart here.

Assays:
PHL [1] = target: T1, PHL (Photorhabdus asymbiotica, UniProt C7BLE4); format: binding; details: for Median: calculated from hexaplicates
PHL [2] = target: T1, PHL; assay: SPR inhibition of PHL binding to immobilized L-fucoside; details: for Potency relative to L-Fuc: SPR inhibition, from IC50
Method: (§1) SPR inhibition experiments were performed using the same conditions described above. The PHL lectin (0.25 μM final concentration) was mixed with various concentrations of inhibitors (1M – 0.01 mM) and injected onto the sensor chip. Pure PHL lectin was used as a control (0% inhibition). The response of the lectin bound to the sugar surface at equilibrium was plotted against the concentration of inhibitor in order to determine IC50.

PHL [3] = target: T1, PHL; assay: Isothermal titration calorimetry (ITC); format: binding; details: for binding stoichiometry: fitted
Method: (§2) ITC experiments were performed using an ITC200 calorimeter (Malvern, England). Experiments were performed at 25°C in buffer A (300 mM NaCl, 20 mM Tris/HCl, pH 7.5). Carbohydrate ligands were dissolved in the same buffer. Protein in the cell (50 μM) was titrated by consecutive addition (2 μl) of the ligand in the syringe (1.5–50 mM) while stirring at 1000 rpm. Control experiments performed with injections of buffer in the protein solution yielded insignificant signals. Integrated heat effects were analyzed by nonlinear regression using a single-site binding model in Origin 7 (Microcal). The experimental data fitted to a theoretical titration curve brought up stoichiometry (n), association constant Ka, and the enthalpy of binding ΔH. The other thermodynamic parameters such as free energy (ΔG) and […] (ΔS) were calculated from the equation ΔG = ΔH-TΔS = -RTlnKa, where T is the absolute temperature and R is the molar gas constant (8.314 J.mol^-1.K^-1). At least two independent titrations were carried out for each tested ligand.

PHL [4] = target: T1, PHL; assay: Haemagglutination inhibition assay with PHL; format: cell-based; details: for Potency towards L-fucose: haemagglutination inhibition, from MIC; for MIC (minimal inhibitory concentration) of haemagglutination by PHL: microscopy
Method: A haemagglutination inhibition assay was performed to determine the specificity and semi-quantitative affinity of PHL interaction with the saccharides. A wide range of monosaccharides at concentrations from 50 mM to 0.5 mM were used for determining the lowest inhibiting concentration. A 20 μl mixture composed of 5 μl PHL (2mg/ml), 5 μl saccharide, and 10 μl 10% RBCs was prepared (all components of reaction were in PBS buffer). After 10 minutes, the reaction was observed using a Levenhuk microscope.

PHL [5] = assay: SPR inhibition of PHL binding to immobilized L-fucoside; parameters: species or system Photorhabdus asymbiotica; details: IC50 from SPR inhibition, PLL data ref 21
Method: as §1

PHL [6] = assay: Isothermal titration calorimetry (ITC); format: binding, Photorhabdus asymbiotica; details: ITC, PLL data ref 21
Method: as §2

[7] = tested on: phenoloxidase (PO) in haemolymph of G. mellonella; assay: Phenoloxidase activity in insect haemolymph; format: biochemical, Galleria mellonella; details: 0.2M sugar, PHL 475 μg
Method: Larvae of the greater wax moth, Galleria mellonella, were reared on an artificial diet at 30 ± 1°C in constant darkness. Haemolymph was collected from the seventh instar larvae by cutting a proleg and pooling the haemolymph into a tube containing phenylthiourea (1 mg/ml in PBS; haemolymph mixed with phenylthiourea in the ratio 9:1 [v/v]) or used directly for the determination of phenoloxidase activity.
PO activity was measured according to previously published studies. Haemolymph of G. mellonella (5 μl) was collected directly to 95 μl of PHL (475 μg in PBS for all experiments except dose-dependence assay where different dilutions of PHL were used), PLL (475 μg in PBS), BSA (475 μg in PBS) or PBS (pH 7.4) and incubated for 10 min at room temperature. After incubation, 40 μl of reaction mixture was transported to the microplate well and 160 μl of 3,4-dihydroxy-DL-phenylalanine (3 mg/ml in PBS) was added as substrate. The reaction was allowed to proceed for 30 min, and absorbance was measured in 2-min intervals at 492 nm with a Sunrise reader (Tecan, Switzerland). PO activity was expressed as linear increase in absorbance per minute. For the inhibition assay, PHL was pre-incubated with 0.2M L-Fuc or Me-α-L-Fuc for 10 min at room temperature prior to mixing with haemolymph.

[8] = glycan array signal of labelled PHL for the printed glycan/polysaccharide, Semiotic slide 10085636
[9] = glycan array signal of PHL per printed glycan, microarray chip (Semiotic, Moscow; Slide number 10085636), 488 channel
[10] = SPR, PHL 0.25 μM binding to immobilized L-fucoside, 25°C, read-out: IC50
[11] = ITC at 25°C, stoichiometry fixed to 3, read-out: KD (n = 3)
[12] = ITC at 25°C, stoichiometry fixed to 4, read-out: KD (n = 4)
[13] = ITC, stoichiometry not fixed, read-out: equilibrium dissociation constant

T1 sequence (C7BLE4 1-369): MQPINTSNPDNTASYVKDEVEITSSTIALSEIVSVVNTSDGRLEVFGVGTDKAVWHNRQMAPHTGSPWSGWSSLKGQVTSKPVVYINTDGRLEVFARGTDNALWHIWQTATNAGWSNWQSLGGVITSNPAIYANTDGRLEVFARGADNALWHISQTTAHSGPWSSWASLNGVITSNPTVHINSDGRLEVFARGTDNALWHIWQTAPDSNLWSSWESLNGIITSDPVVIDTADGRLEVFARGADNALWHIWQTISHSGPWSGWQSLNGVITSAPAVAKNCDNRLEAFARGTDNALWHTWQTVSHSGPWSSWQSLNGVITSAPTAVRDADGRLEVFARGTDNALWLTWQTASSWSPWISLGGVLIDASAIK

Row | Compound | Median (PHL [1]; [9]) | Potency relative to L-Fuc (PHL [2]) | IC50 (PHL [2]; [10]) [µM] | Kd (PHL [3]; [11]) [µM] | Kd (PHL [3]; [12]) [µM] | Potency towards L-fucose (PHL [4]) | also measured
1 | NCC(O)C(O)C(O)C(O)CO (stereo not shown) [HOCH2(HOCH)4CH2NH2] | – | – | – | – | – | – | Median (PHL [1]; [8]): 70
2 | GalNAcβ1-4GlcNAcβ-sp2 | 87 | – | – | – | – | – | –
3 | Curdlan | – | – | – | – | – | – | Median (PHL [1]; [8]): 75
4 | CC(=O)N[C@H]1C(O)O[C@H](CO)[C@@H](O[C@@H]2O[C@@H](C)[C@@H](O)[C@@H](O)[C@@H]2O)[C@@H]1O (stereo partly shown) [Fucα1-4GlcNAc] | – | 0.49 | 730 | 4460 ± 310 | 4370 ± 310 | 1.3 | MIC (minimal inhibitory concentration) of haemagglutination by PHL (PHL [4]): 2500 µM
5 | Galβ1-4GlcNAcβ1-6(Galβ1-4GlcNAcβ1-3)GalNAcα-sp3 | – | – | – | – | – | – | Median (PHL [1]; [8]): 71
6 | 6-H2PO3Manα-sp3 | 83 | – | – | – | – | – | –
7 | CC(=O)N[C@H]1[C@H](OCCCN)O[C@H](CO)[C@@H](O[C@@H]2O[C@H](CO)[C@H](OS(=O)(=O)O)[C@H](OS(=O)(=O)O)[C@H]2O)[C@@H]1O [3,4-O-Su2-Galβ1-4GlcNAcβ-sp3] | 87 | – | – | – | – | – | –
8 | Galβ1-4GlcNAcβ-sp8 | 83 | – | – | – | – | – | –
9 | C[C@@H]1O[C@@H](O[C@H]2C(O)O[C@H](CO)[C@H](O)[C@@H]2O[C@H]2O[C@H](CO)[C@H](O)[C@H](O)[C@H]2O)[C@@H](O)[C@H](O)[C@@H]1O (stereo partly shown) [BGB trisaccharide] | – | 5.15 | 70 | 570 ± 10 | 510 ± 10 | 10 | relative binding / preference on glycan array (PHL [1]; PHL 200 μg/ml): strongest binding to human-related oligosaccharides; Potency relative to L-Fuc (PHL [2]; listed as blood group B trisaccharide): ~5; binding stoichiometry (PHL [3]; ITC): ~4.3; Kd (PHL [3]; [13]): 490 µM
10 | GlcNAcβ1-4Galβ1-4GlcNAcβ-sp2 | 86 | – | – | – | – | – | –
11 | CO[C@@H]1O[C@@H](C)[C@@H](O)[C@@H](O)[C@@H]1O [Me-α-L-Fuc, Methyl-α-L-fucopyranoside] | – | – | 40 | 260 ± 40 | 210 | 8 | fold better inhibition effect for PHL than for PLL (PHL [5]): 42 fold; binding stoichiometry (PHL [3]; ITC): approx. 2.9; Kd (PHL [3]; [13]): 270 µM; fold higher affinity of PHL than PLL (PHL [6]): approx. 4 fold; MIC (minimal inhibitory concentration) of haemagglutination by PHL (PHL [4]): 390 µM; PHL activation of melanisation in the presence of sugar [7]: inhibited
12 | OC[C@H]1OC(O)[C@H](O)[C@@H](O)[C@@H]1O (stereo partly drawn) [D-Glc] | – | < 0.01 | – | 3550 ± 150 | 3480 ± 150 | <0.01 | –
13 | CO[C@H]1O[C@@H](C)[C@@H](O)[C@@H](O)[C@@H]1O [Me-β-L-Fuc, methyl-β-L-fucopyranoside] | – | 0.47 | 770 | 3550 ± 90 | 3480 ± 90 | 0.5 | MIC (minimal inhibitory concentration) of haemagglutination by PHL (PHL [4]): 6250 µM
14 | CC(=O)N[C@H]1C(O)O[C@H](CO)[C@@H](O[C@@H]2O[C@H](CO)[C@H](O)[C@H](O)[C@H]2O[C@@H]2O[C@@H](C)[C@@H](O)[C@@H](O)[C@@H]2O)[C@@H]1O (stereo partly shown) [BGH trisaccharide] | – | 0.33 | 1090 | 4440 ± 190 | 4350 ± 190 | <0.01 | –
15 | CC(=O)N[C@@H]1[C@@H](O)[C@H](O)[C@@H](CO)O[C@@H]1O [D-GlcNAc, N-acetyl-D-glucosamine] | – | 0.01 | 70500 | – | – | <0.01 | –
16 | C[C@H](O)[C@@H](O)[C@@H](O)[C@H](O)C=O [L-Fuc, L-fucose] | – | – | – | 1400 ± 30 | 1330 ± 40 | 1 | IC50 (PHL [2]): 360 µM; fold better inhibition effect for PHL than for PLL (PHL [5]): 15 fold; fold higher affinity of PHL than PLL (PHL [6]): approx. 4 fold; MIC (minimal inhibitory concentration) of haemagglutination by PHL (PHL [4]): 3125 µM; PHL activation of melanisation in the presence of sugar [7]: inhibited
17 | OC[C@H]1OC(O)[C@@H](O)[C@@H](O)[C@@H]1O (stereo partly drawn) [D-Man, D-mannose] | – | < 0.01 | – | 44600 ± 2000 | 44400 ± 2000 | <0.01 | –
18 | GlcNAcβ-sp8 | 78 | – | – | – | – | – | –
